# Source: ChEMBL document CHEMBL3045770, “Design and synthesis of some thieno[2,3-c]pyridazine derivatives of expected anticancer activity” (2013)
# Legend:
# Assay type in all cases: functional
# [1] = test system: UO-31; assay: Cytotoxicity against Homo sapiens (human) UO31 cells after 48 hr by SRB assay; conditions: UO-31, 48 h
# [2] = test system: SK-MEL-2; assay: Cytotoxicity against Homo sapiens (human) SK-MEL-2 cells after 48 hr by SRB assay; conditions: SK-MEL-2, 48 h
# [3] = Cytotoxicity against Homo sapiens (human) NCI-ADR-RES cells after 48 hr by SRB assay
# [4] = test system: MDA-MB-435; assay: Cytotoxicity against Homo sapiens (human) MDA-MB-435 cells after 48 hr by SRB assay; conditions: MDA-MB-435, 48 h
# [5] = test system: Malme-3M; assay: Cytotoxicity against Homo sapiens (human) MALME-3M cells after 48 hr by SRB assay
# [6] = test system: HOP-62; assay: Cytotoxicity against Homo sapiens (human) HOP62 cells after 48 hr by SRB assay; conditions: HOP-62, 48 h
# [7] = test system: EKVX; assay: Cytotoxicity against Homo sapiens (human) EKVX cells after 48 hr by SRB assay
# [8] = test system: NCI-H522; assay: Cytotoxicity against Homo sapiens (human) NCI-H522 cells after 48 hr by SRB assay; conditions: NCI-H522, 48 h
# [9] = test system: DU-145; assay: Cytotoxicity against Homo sapiens (human) DU145 cells after 48 hr by SRB assay; conditions: DU-145, 48 h
# [10] = test system: SW-620; assay: Cytotoxicity against Homo sapiens (human) SW620 cells after 48 hr by SRB assay; conditions: SW-620, 48 h
# [11] = test system: HT-29; assay: Cytotoxicity against Homo sapiens (human) HT-29 cells after 48 hr by SRB assay; conditions: HT-29, 48 h
# [12] = test system: RPMI-8226; assay: Cytotoxicity against Homo sapiens (human) RPMI8226 cells after 48 hr by SRB assay; conditions: RPMI-8226, 48 h
# [13] = test system: CCRF-CEM; assay: Cytotoxicity against Homo sapiens (human) CCRF-CEM cells after 48 hr by SRB assay
# [14] = test system: Hs-578T; assay: Cytotoxicity against Homo sapiens (human) Hs 578T cells after 48 hr by SRB assay
# [15] = test system: SK-OV-3; assay: Cytotoxicity against Homo sapiens (human) SKOV3 cells after 48 hr by SRB assay; conditions: SK-OV-3, 48 h
# [16] = read-out: LC50 (the source's name)
structure (smiles),measurement,setting,value
Oc1c(-c2nnc(-c3ccc(Cl)cc3)o2)sc2nnc(-c3ccccc3)c(-c3ccccc3)c12,GI50,[1],3.62 µM
same,TGI,[1],6.22 µM
same,GI50,[2],4.13 µM
same,TGI,[2],8.23 µM
same,GI50,[3],2.58 µM
same,TGI,[3],18.3 µM
same,GI50,[4],4.65 µM
same,TGI,[4],18.3 µM
same,GI50,[5],4.61 µM
same,TGI,[5],11.3 µM
same,GI50,[6],4.99 µM
same,TGI,[6],18.3 µM
same,GI50,[7],4.05 µM
same,TGI,[7],11.2 µM
same,CC50,[7]; [16],0.0183 µM
same,GI50,[8],4.34 µM
same,TGI,[8],9.76 µM
same,GI50,[9],6.22 µM
same,TGI,[9],18.3 µM
same,GI50,[10],4.56 µM
same,TGI,[10],6.61 µM
same,GI50,[11],4.56 µM
same,TGI,[11],9.1 µM
same,CC50,[11]; [16],0.0183 µM
same,GI50,[12],3.97 µM
same,TGI,[12],18.3 µM
same,CC50,[12]; [16],0.0183 µM
same,GI50,[13],2.88 µM
same,TGI,[13],18.3 µM
same,GI50,[14],4.43 µM
same,TGI,[14],18.3 µM
same,GI50,[15],5.04 µM
same,TGI,[15],18.3 µM
same,CC50,[15]; [16],0.0183 µM
